{"source": "patent US20230357349A1", "about": "“GLUCAGON DELIVERY VIA ENZYMATIC ACTUATION” (University of Notre Dame du Lac, priority 2022, published 2023)", "key": {"[1]": {"test": "pH-dependent release of encapsulated 3 kDa FITC-dextran to screen PA sequences", "format": "physicochemical", "conditions": "3 kDa FITC-dextran release; pH 7 minus pH 5 at 5 hr", "description": "GOx conversion of physiological levels of glucose to yield gluconic acid can lead to a microenvironmental pH in the range of ˜4-5.6. Accordingly, a molecular design was envisioned bearing the typical saturated alkyl chain and β-sheet-forming sequence coupled to glutamic acid as the hydrophilic domain; the pKa of its carboxylate R-group (˜4.5) can shift upward in the range of 4.5-6 due to aggregation effects from PA self-assembly. […] Different PA sequences were synthesized to vary the alkyl tail length (C10 and C16) and valine (V)-alanine (A) β-sheet sequence (V2A2, VA3, A2) with a conserved hydrophilic head group (E2). The intention of screening this small set of molecules was to probe pH-responsive release to determine the optimal balance of attractive and repulsive forces required for the envisioned application of assembly at normal glucose (i.e., low pH actuated by GOx) but disassembly and glucagon release in low glucose conditions (i.e., neutral-buffered physiological pH). […] The selected sequence has a shorter C10 alkyl segment than commonly used in most reported PA materials. The V2A2 sequence is thought to be effective for β-sheet hydrogen bonding, while still being shorter than most commonly explored sequences. […] Thus, a reduction in cohesive forces from a shorter alkyl segment and a 4-residue β-sheet forming segment was thought to enable more rapid responsiveness dependent on the charge state of the glutamic acid residues.\nHydrogels were prepared in all cases in a pH 5 buffer at 1% w/v to ensure initial gelation. […] It is noted that catalase was added to these formulations in order to catalyze the conversion of the toxic GOx byproduct, H2O2, into H2O and O2 in advance of in vivo application, as is commonly done to reduce toxicity for other GOx-based glucose-responsive materials."}, "[2]": {"conditions": "in vivo; cited from earlier work"}, "[3]": {"conditions": "humans; cited from earlier work"}, "[4]": {"test": "pH recorded by microelectrode submerged in PA/GOx hydrogel samples", "format": "physicochemical", "conditions": "24 h, began at pH 7.4"}, "[5]": {"test": "Oscillatory rheology of 1% w/v PA with GOx at various glucose concentrations", "format": "physicochemical", "conditions": "pH 7.4 start, 24 h", "protocol": "The C10-V2A2E2 peptide amphiphile was first dissolved in DI water at a concentration of 2% (w/v). The solution was adjusted to pH 7.4 using 0.1 M HCl, and then mixed with an equal volume of 300 mM NaCl solution containing 440 U/mL GOx and different glucose concentration (0, 100, 200, 300, 400 mg/dL) to achieve final glucose concentrations of 0, 50, 100, 150, and 200 mg/dL and final peptide concentration of 1% (w/v).\n(§1) Dynamic oscillatory rheology was performed on a TA Instruments Discovery HR-2 rheometer fitted with a Peltier stage using a parallel plate geometry with diameter of 25 mm to test the mechanical properties of all peptide hydrogels. Samples were prepared at a concentration of 1% (w/v) in buffers of different pH or glucose concentration, as described above, and measured 24 h after gel preparation. An amplitude sweep was first performed to determine the linear viscoelastic range for each hydrogel condition, and then a frequency sweep was performed at constant strain. Subsequently, a time-sweep (1% strain, 10 rad/s angular frequency) was performed for all hydrogels to measure and compare the storage modulus (G′).\nAfter pH-dependent self-assembly and gelation was established, glucose-dependent gelation was explored through the inclusion of GOx to actuate glucose into a pH stimulus. One benefit of hydrogelation of this material at 1% w/v is the significant hydrated and interconnected porosity (FIG. 9A-D) to enable encapsulation of proteins like GOx to drive gelation in response to glucose. Samples of C10-V2A2E2 were prepared at 1% w/v in buffer at pH 7.4, with glucose added to achieve concentrations ranging from 0 to 200 mg/dL (0 to 11.1 mM). These ranges of glucose were selected to span typical physiological glucose levels in the healthy state and extend down to levels corresponding to hypoglycemia. Following equilibration for 24 h, samples were assessed grossly for gelation by vial inversion (FIG. 10A), as performed in pH-dependent gelation studies. […] The material prepared with 100 mg/dL glucose was very viscous but slowly flowed upon inversion, while those prepared at 0 mg/dL and 50 mg/dL were not self-supported on inversion.\nMeasurements were collected as before for gels prepared in each of the different glucose-containing buffers. The value of G′ increased with increasing levels of glucose, as follows: 10.2 Pa (0 mg/dL), 19.0 Pa (50 mg/dL), 29.5 Pa (100 mg/dL), 206.6 Pa (150 mg/dL), and 2.4 kPa (200 mg/dL). Given results of pH-dependent gelation for C10-V2A2E2 PA, it was expected that inclusion of GOx would actuate increased glucose level into a local reduction in pH driving hydrogelation. […] The fixed and finite glucose concentrations within these small volume hydrogels may somewhat limit direct comparisons with concentrations for their use in a physiological setting, as a replenishable glucose supply could further stiffen the materials through enhanced pH reduction."}, "[6]": {"test": "Oscillatory rheology of 1% w/v PA samples in buffers of various pH", "format": "physicochemical", "conditions": "for storage modulus G′: 1% w/v, 1% strain, 10 rad/s", "protocol": "The C10-V2A2E2 peptide (SEQ ID NO: 4) amphiphile was first dissolved in DI water at a concentration of 2% (w/v). The solution was adjusted to pH 7.4 using 0.1 M HCl, and then mixed with an equal volume of citrate-phosphate buffer (150 mM buffer+150 mM NaCl) at different pH (4, 5, 6, 7, 8) to form a gel at a concentration of 1% (w/v) in a final buffer concentration of 150 mM.\nas §1\nVial inversion affords a crude means to inspect bulk differences in apparent hydrogelation. By contrast, rheological testing enables quantitative insights into the mechanical and dynamic properties of these materials. Oscillatory rheology was thus performed to quantify the observed pH-dependent differences in hydrogelation. Samples were first assessed with a strain sweep to determine the linear viscoelastic range, and then gel-forming samples were subjected to a frequency sweep to verify the range of oscillatory frequency rates wherein the storage modulus (G′) exceeded the viscous/loss modulus (G″).\nThe G′ values for samples at each pH were compared at a constant strain of 1% and frequency of 10 rad/s. When comparing G′ values across the full range of pH explored (n=2 gels/sample), pH-dependent mechanical properties were clearly evident (FIG. 4E, FIG. 7). […] Samples prepared at pH 8 had G′ measurements at the lower limit of instrument sensitivity."}, "[7]": {"test_system": "Streptozotocin (STZ) diabetic mice", "test": "Prophylactic hypoglycemia prevention after insulin overdose in diabetic mice", "quoted_text": "To assess the ability of this technology to act in a preventative role to limit the onset and severity of hypoglycemia, a mouse model was established. Male C57BL6/J mice, aged 8 weeks, were induced to be diabetic by the destruction of pancreatic β-cells using a single intraperitoneal (i.p.) injection of streptozotocin (STZ, Cayman Chemical) at a dose of 150 mg/kg, according to published dosing protocols. […] Insulin-deficient diabetes was verified at 9-13 days following STZ treatment using handheld blood glucose meters (CVS brand) to ensure unfasted blood glucose (BG) levels of 600+ mg/dL. These glucometers measure blood glucose values in the range of 20-600 mg/dL. For convention in presenting data, values of “high” are plotted as 600 mg/dL, while values of “low” are plotted as 20 mg/dL.\nMice were fasted overnight for a period of 9 h, after which time BG was again measured. Mice having a fasted BG<450 mg/dL were triaged and removed from further study. Remaining mice were dosed with basal insulin detemir (Levemir®, Novo Nordisk) via subcutaneous (s.c.) injection at a dose of 0.5 IU/kg in a total injection volume of 100 μL. […] This material formulation was verified to be stable following extrusion through a syringe into a pH 7 buffer containing 100 mg/dL glucose. Blood glucose was monitored serially following treatment, which for purposes of data visualization was set as t=0 min. At 2 h following administration of treatments, hypoglycemia was induced by i.p. injection of AOF recombinant human insulin (Gibco) at a dose of ˜2.5 IU/kg in 100 μL of saline. BG levels were monitored for an additional 3 h after insulin overdose to monitor the onset of, and recovery from, hypoglycemia. […] In total n=9 mice per group were assessed by these methods, performing all treatments in two separate experiments on different mouse cohorts at different times and combining the data for analysis here. Mice were fasted for the duration of the study but had continuous access to water. […] Statistical testing between treatment and control groups was performed using one-way ANOVA with Tukey multiple comparison post-hoc testing (GraphPad Prism v9.0).\nSTZ mice were fasted to increase sensitivity to both insulin and glucagon and limit confounding data arising from variable eating patterns. After a 9 h fast, basal insulin detemir (Novo Nordisk, Levemir®) was administered to correct blood glucose to within the normoglycemic range for a healthy mouse (˜180-200 mg/dL) to simulate insulin-dependent blood glucose control in diabetes."}}, "note": "Peptide text beside a SMILES is read from it. * marks the point of attachment. Palmitoyl = CCCCCCCCCCCCCCCC(=O)*; Decanoyl = CCCCCCCCCC(=O)*"}
{"compound": "CCCCCCCCCC(=O)N[C@H](C(=O)N[C@@H](C)C(=O)N[C@@H](C)C(=O)N[C@@H](C)C(=O)N[C@@H](CCC(=O)O)C(=O)N[C@@H](CCC(=O)O)C(N)=O)C(C)C", "note": "[C10—VA3E2] (Decanoyl-VAAAEE-NH2)", "values": [{"measurement": "Δ Release % (pH 7-5 at 5 hr)", "setting": "[1]", "result": 39.1, "unit": "%"}]}
{"compound": "glucagon", "values": [{"measurement": "half-life in circulation", "setting": "[2]", "result": "approximately 5 min"}]}
{"compound": "CCCCCCCCCCCCCCCC(=O)N[C@@H](C)C(=O)N[C@@H](C)C(=O)N[C@H](C(=O)N[C@H](C(=O)N[C@@H](CCC(=O)O)C(=O)N[C@@H](CCC(=O)O)C(N)=O)C(C)C)C(C)C", "note": "[C16—A2V2E2] (Palmitoyl-AAVVEE-NH2)", "values": [{"measurement": "Δ Release % (pH 7-5 at 5 hr)", "setting": "[1]", "result": 38.9, "unit": "%"}]}
{"compound": "insulin detemir", "values": [{"measurement": "duration of action", "setting": "[3]", "result": "18 to 20", "unit": "h"}]}
{"compound": "CCCCCCCCCC(=O)N[C@H](C(=O)N[C@H](C(=O)N[C@@H](C)C(=O)N[C@@H](C)C(=O)N[C@@H](CCC(=O)O)C(=O)N[C@@H](CCC(=O)O)C(N)=O)C(C)C)C(C)C", "note": "[C10—V2A2E2] (Decanoyl-VVAAEE-NH2)", "values": [{"measurement": "pH within hydrogel sample", "setting": "[4]; 0 mg/dL glucose", "result": 7.3}, {"measurement": "pH within hydrogel sample", "setting": "[4]; 200 mg/dL glucose", "result": 5.5}, {"measurement": "Δ Release % (pH 7-5 at 5 hr)", "setting": "[1]", "result": 62.6, "unit": "%"}, {"measurement": "storage modulus G′", "setting": "[5]; 0 mg/dL glucose", "result": 10.2, "unit": "Pa"}, {"measurement": "storage modulus G′", "setting": "[5]; 50 mg/dL glucose", "result": 19.0, "unit": "Pa"}, {"measurement": "storage modulus G′", "setting": "[5]; 100 mg/dL glucose", "result": 29.5, "unit": "Pa"}, {"measurement": "storage modulus G′", "setting": "[5]; 150 mg/dL glucose", "result": 206.6, "unit": "Pa"}, {"measurement": "storage modulus G′", "setting": "[5]; 200 mg/dL glucose", "result": 2.4, "unit": "kPa"}, {"measurement": "critical strain", "setting": "[6]; hydrogel in buffer at pH 5", "result": "~55", "unit": "%"}, {"measurement": "strain range of linear behavior with G′>G″", "setting": "[6]; hydrogel in buffer at pH 5", "result": "0.1-5%"}, {"measurement": "pKa", "setting": "[6]; inferred from rheology, TEM, CD, FTIR, ThT, read-out: pKa of glutamic acid residues in the assembled structures", "result": "5 to 6"}, {"measurement": "storage modulus G′", "setting": "[6]; pH 4", "result": 6.2, "unit": "kPa"}, {"measurement": "storage modulus G′", "setting": "[6]; pH 5", "result": 5.1, "unit": "kPa"}, {"measurement": "storage modulus G′", "setting": "[6]; pH 6", "result": 53.7, "unit": "Pa"}, {"measurement": "storage modulus G′", "setting": "[6]; pH 7", "result": 4.3, "unit": "Pa"}, {"measurement": "storage modulus G′", "setting": "[6]; pH 8", "result": 1.2, "unit": "Pa"}]}
{"compound": "CCCCCCCCCCCCCCCC(=O)N[C@H](C(=O)N[C@H](C(=O)N[C@@H](C)C(=O)N[C@@H](C)C(=O)N[C@@H](CCC(=O)O)C(=O)N[C@@H](CCC(=O)O)C(N)=O)C(C)C)C(C)C", "note": "[C16—V2A2E2] (Palmitoyl-VVAAEE-NH2)", "values": [{"measurement": "Δ Release % (pH 7-5 at 5 hr)", "setting": "[1]", "result": 43.6, "unit": "%"}]}
{"compound": "CCCCCCCCCCCCCCCC(=O)N[C@H](C(=O)N[C@@H](C)C(=O)N[C@@H](C)C(=O)N[C@@H](C)C(=O)N[C@@H](CCC(=O)O)C(=O)N[C@@H](CCC(=O)O)C(N)=O)C(C)C", "note": "[C16—VA3E2] (Palmitoyl-VAAAEE-NH2)", "values": [{"measurement": "Δ Release % (pH 7-5 at 5 hr)", "setting": "[1]", "result": 53.8, "unit": "%"}]}
{"compound": "dasiglucagon", "values": [{"measurement": "blood glucose relative to buffer control", "setting": "[7]; 30 min after treatment, before insulin challenge", "result": "sharply increased"}, {"measurement": "blood glucose at endpoint of study", "setting": "[7]; 300 min, 3 h after insulin challenge, n=9", "result": "65.6 ± 10.8", "unit": "mg/dL"}, {"measurement": "minimum (nadir) blood glucose", "setting": "[7]; STZ mice, s.c. 0.01 mg dasiglucagon, insulin challenge at 2 h, n=9, SEM", "result": "41.1 ± 5.0", "unit": "mg/dL"}, {"measurement": "observations of death", "setting": "[7]; after insulin overdose", "result": "1 of 9"}]}
